Assay results: patent publication US20220411439A1, “POLYMORPHS OF A MACROCYCLIC KINASE INHIBITOR” (TURNING POINT THERAPEUTICS, INC., priority 2019, published 2022)

Assays:
FYN = molecular target: T1, FYN (Homo sapiens, UniProt P06241); experiment: Biochemical kinase assay; conditions: 10 μM ATP
T1 construct: purchased Reaction Biology Corporation (contract assay)
Method: (§1) Specific kinase/substrate pairs along with required cofactors were prepared in reaction buffer; 20 mM Hepes pH 7.5, 10 mM MgCl2, 1 mM EGTA, 0.02% Brij35, 0.02 mg/ml BSA, 0.1 mM Na3VO4, 2 mM DTT, 1% DMSO. Compounds were delivered into the reaction, followed ˜20 minutes later by addition of a mixture of ATP (Sigma, St. Louis Mo.) and ^33P ATP (Perkin Elmer, Waltham Mass.) to a final concentration of 10 μM. Reactions were carried out at room temperature for 120 min, followed by spotting of the reactions onto P81 ion exchange filter paper (Whatman Inc., Piscataway, N.J.). Unbound phosphate was removed by extensive washing of filters in 0.75% phosphoric acid. […] IC50 values and curve fits were obtained using Prism (GraphPad Software).

HCK = molecular target: T2, HCK (Homo sapiens, UniProt P08631); experiment: Biochemical kinase assay; conditions: 10 μM ATP
T2 construct: purchased Reaction Biology Corporation (contract assay)
T2 sequence (P08631 whole entry): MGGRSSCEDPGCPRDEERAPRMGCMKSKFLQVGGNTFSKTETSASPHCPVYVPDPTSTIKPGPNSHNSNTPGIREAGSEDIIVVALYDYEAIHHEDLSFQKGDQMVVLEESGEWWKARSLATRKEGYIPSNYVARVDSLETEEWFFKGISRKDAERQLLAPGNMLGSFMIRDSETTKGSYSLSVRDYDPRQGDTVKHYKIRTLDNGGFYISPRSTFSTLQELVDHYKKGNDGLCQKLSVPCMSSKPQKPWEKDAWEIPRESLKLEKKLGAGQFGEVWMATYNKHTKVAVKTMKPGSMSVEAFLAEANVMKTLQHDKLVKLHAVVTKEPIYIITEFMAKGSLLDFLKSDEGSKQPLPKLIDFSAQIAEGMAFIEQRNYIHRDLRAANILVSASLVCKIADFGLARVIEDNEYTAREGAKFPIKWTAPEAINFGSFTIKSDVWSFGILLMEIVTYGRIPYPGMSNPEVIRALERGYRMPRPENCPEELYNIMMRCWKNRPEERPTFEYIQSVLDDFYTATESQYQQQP
Method: as §1

YES/YES1 = molecular target: T3, YES/YES1 (Homo sapiens, UniProt P07947); experiment: Biochemical kinase assay; conditions: 10 μM ATP
T3 construct: purchased Reaction Biology Corporation (contract assay)
T3 sequence (P07947 whole entry): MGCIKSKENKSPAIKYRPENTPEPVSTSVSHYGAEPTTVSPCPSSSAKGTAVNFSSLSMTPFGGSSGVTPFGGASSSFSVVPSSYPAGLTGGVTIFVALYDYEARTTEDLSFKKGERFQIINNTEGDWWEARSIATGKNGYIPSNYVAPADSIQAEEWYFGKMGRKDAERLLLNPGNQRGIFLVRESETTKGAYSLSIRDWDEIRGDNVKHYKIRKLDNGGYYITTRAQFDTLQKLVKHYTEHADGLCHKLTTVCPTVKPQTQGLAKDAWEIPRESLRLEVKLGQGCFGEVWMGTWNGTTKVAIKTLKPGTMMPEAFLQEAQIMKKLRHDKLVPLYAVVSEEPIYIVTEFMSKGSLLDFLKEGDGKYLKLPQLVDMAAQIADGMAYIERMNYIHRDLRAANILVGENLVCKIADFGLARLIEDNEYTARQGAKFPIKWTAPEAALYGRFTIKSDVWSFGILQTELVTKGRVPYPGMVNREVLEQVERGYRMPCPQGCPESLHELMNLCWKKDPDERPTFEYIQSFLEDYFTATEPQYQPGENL
Method: as §1

LYN = molecular target: T4, LYN (Homo sapiens, UniProt P07948); experiment: Biochemical kinase assay; conditions: 10 μM ATP
T4 construct: purchased Reaction Biology Corporation (contract assay)
T4 sequence (P07948 whole entry): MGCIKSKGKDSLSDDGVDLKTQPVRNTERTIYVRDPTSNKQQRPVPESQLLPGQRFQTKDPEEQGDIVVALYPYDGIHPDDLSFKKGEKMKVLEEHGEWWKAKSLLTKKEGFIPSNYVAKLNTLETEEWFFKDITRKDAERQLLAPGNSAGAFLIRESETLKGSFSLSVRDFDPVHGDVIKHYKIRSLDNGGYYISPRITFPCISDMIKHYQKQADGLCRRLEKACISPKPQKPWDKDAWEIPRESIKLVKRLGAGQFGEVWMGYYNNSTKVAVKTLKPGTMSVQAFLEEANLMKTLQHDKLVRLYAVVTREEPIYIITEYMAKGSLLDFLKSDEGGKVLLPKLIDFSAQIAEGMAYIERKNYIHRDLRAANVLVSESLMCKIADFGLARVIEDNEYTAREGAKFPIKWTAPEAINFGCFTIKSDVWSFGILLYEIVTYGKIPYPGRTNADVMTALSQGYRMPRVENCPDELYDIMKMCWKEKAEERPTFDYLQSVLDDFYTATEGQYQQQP
Method: as §1

SRC = molecular target: T5, SRC (Homo sapiens, UniProt P12931); experiment: Biochemical kinase assay; conditions: 10 μM ATP
T5 construct: purchased Reaction Biology Corporation (contract assay)
T5 sequence (P12931 whole entry): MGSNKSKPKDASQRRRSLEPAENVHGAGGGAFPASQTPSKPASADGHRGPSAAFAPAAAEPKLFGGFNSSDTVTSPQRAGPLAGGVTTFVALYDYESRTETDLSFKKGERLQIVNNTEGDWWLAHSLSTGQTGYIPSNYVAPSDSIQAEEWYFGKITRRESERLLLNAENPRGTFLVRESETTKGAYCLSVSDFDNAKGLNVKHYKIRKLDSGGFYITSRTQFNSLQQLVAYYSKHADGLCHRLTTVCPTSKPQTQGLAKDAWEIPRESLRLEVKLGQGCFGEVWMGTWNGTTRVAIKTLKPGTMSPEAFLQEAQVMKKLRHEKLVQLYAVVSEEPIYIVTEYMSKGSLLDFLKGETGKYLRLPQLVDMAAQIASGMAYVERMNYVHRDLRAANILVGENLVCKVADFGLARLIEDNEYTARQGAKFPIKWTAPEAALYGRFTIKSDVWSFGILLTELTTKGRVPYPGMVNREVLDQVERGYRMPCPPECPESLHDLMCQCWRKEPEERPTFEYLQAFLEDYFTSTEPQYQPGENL
Method: as §1

RET = molecular target: T6, RET (Homo sapiens, UniProt P07949); experiment: Biochemical kinase assay; conditions: 10 μM ATP
T6 construct: purchased Reaction Biology Corporation (contract assay)
T6 sequence (P07949 29-1114): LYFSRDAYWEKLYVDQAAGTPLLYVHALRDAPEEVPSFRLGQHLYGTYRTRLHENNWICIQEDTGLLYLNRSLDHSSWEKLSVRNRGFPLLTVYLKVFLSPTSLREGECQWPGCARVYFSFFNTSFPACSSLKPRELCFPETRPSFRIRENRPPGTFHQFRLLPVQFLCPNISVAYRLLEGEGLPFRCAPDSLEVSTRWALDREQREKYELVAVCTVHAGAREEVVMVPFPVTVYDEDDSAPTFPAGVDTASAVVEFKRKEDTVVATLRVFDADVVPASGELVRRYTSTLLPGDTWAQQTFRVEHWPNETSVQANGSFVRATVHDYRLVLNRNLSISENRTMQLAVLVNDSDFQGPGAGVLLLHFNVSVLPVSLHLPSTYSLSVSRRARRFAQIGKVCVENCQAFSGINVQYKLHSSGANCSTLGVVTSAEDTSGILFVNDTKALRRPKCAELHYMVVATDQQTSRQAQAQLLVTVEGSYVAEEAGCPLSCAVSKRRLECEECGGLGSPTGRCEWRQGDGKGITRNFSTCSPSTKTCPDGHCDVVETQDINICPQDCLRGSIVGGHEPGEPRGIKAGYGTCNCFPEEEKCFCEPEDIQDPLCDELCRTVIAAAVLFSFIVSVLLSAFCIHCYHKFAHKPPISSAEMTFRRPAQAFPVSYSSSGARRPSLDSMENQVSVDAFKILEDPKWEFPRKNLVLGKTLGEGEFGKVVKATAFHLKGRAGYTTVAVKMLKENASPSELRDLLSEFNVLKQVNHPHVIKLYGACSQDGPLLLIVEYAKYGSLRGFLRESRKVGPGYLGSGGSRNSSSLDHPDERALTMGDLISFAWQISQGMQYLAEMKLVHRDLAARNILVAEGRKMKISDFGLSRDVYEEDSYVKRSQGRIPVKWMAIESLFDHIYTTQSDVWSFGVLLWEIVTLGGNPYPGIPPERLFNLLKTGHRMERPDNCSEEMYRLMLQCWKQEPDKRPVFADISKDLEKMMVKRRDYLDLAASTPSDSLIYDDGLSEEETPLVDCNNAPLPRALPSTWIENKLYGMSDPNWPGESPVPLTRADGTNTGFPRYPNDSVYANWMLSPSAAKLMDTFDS
Method: as §1

RET-NCOA4 (PTC3) = molecular target: T7, RET-NCOA4 (PTC3) (Homo sapiens, UniProt P07949); experiment: Biochemical kinase assay; conditions: 10 μM ATP
T7 construct: NCOA4 fragment (fusion partner); purchased Reaction Biology Corporation (contract assay)
T7 sequence (P07949 with tags, fused parts or gaps): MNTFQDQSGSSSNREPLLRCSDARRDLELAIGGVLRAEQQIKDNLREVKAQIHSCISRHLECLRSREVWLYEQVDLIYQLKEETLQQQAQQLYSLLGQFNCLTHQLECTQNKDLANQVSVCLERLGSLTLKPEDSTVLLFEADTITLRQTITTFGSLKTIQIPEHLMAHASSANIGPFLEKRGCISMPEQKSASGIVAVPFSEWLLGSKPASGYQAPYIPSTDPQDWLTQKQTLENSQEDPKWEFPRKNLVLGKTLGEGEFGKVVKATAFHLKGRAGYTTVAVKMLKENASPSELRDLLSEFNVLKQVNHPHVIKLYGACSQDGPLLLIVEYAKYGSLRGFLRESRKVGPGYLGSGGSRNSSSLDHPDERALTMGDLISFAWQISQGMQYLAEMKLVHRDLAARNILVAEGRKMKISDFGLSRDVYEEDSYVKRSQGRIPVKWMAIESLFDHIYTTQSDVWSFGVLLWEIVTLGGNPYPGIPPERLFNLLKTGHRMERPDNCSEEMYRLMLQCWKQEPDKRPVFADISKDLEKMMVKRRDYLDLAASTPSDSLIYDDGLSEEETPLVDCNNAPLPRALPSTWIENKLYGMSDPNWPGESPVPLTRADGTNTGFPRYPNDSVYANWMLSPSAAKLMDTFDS
Method: as §1

KG-1 = experiment: Cell proliferation assay (CellTiter-Glo); assay type: cell-based; conditions: Homo sapiens, anti-cell proliferation, 72 hours
Method: (§2) Human medulla thyroid carcinoma cell line TT (containing RET M918T mutation) and acute myelogenous cell line KG-1 were purchased from ATCC. Human colon cancer cell line KM12 (containing TPM3-TRKA) was obtained from NCI. Two thousand cells per well were seeded in 384 well white plate for 24 hrs, and then treated with compounds for 72 hours (37° C., 5% CO2). Cell proliferation was measured using CellTiter-Glo luciferase-based ATP detection assay (Promega) following the manufactures's protocol. IC50 determinations were performed using GraphPad Prism software (GraphPad, Inc., San Diego, Calif.).

TT cell (RET M918T) = experiment: Cell proliferation assay (CellTiter-Glo); assay type: cell-based; conditions: Homo sapiens, anti-cell proliferation, 72 hours
Method: as §2

KM12 cell (TPM3-TRKA) = experiment: Cell proliferation assay (CellTiter-Glo); assay type: cell-based; conditions: Homo sapiens, anti-cell proliferation, 72 hours
Method: as §2

RET (V804L) = molecular target: T8, RET (V804L) (Homo sapiens, UniProt P07949, V804L); experiment: Biochemical kinase assay; conditions: 10 μM ATP
T8 construct: purchased Reaction Biology Corporation (contract assay)
T8 sequence (P07949 29-1114 V804L): as the sequence (P07949 29-1114) above, with V776L counted along it
Method: as §1, with “The biochemical kinase assay was performed at Reaction Biology Corporation (www.reactionbiology.com, Malvern, Pa.) following the procedures described in the reference (Anastassiadis T, et al Nat Biotechnol. 2011, 29, 1039). Specific” for “Specific”

RET (V804M) = molecular target: T9, RET (V804M) (Homo sapiens, UniProt P07949, V804M); experiment: Biochemical kinase assay; conditions: 10 μM ATP
T9 construct: purchased Reaction Biology Corporation (contract assay)
T9 sequence (P07949 29-1114 V804M): as the sequence (P07949 29-1114) above, with V776M counted along it
Method: as §1, with “The biochemical kinase assay was performed at Reaction Biology Corporation (www.reactionbiology.com, Malvern, Pa.) following the procedures described in the reference (Anastassiadis T, et al Nat Biotechnol. 2011, 29, 1039). Specific” for “Specific”

RET (R749T) = molecular target: T10, RET (R749T) (Homo sapiens, UniProt P07949, R749T); experiment: Biochemical kinase assay; conditions: 10 μM ATP
T10 construct: purchased Reaction Biology Corporation (contract assay)
T10 sequence (P07949 29-1114 R749T): as the sequence (P07949 29-1114) above, with R721T counted along it
Method: as §1, with “The biochemical kinase assay was performed at Reaction Biology Corporation (www.reactionbiology.com, Malvern, Pa.) following the procedures described in the reference (Anastassiadis T, et al Nat Biotechnol. 2011, 29, 1039). Specific” for “Specific”

RET (V804E) = molecular target: T11, RET (V804E) (Homo sapiens, UniProt P07949, V804E); experiment: Biochemical kinase assay; conditions: 10 μM ATP
T11 construct: purchased Reaction Biology Corporation (contract assay)
T11 sequence (P07949 29-1114 V804E): as the sequence (P07949 29-1114) above, with V776E counted along it
Method: as §1, with “The biochemical kinase assay was performed at Reaction Biology Corporation (www.reactionbiology.com, Malvern, Pa.) following the procedures described in the reference (Anastassiadis T, et al Nat Biotechnol. 2011, 29, 1039). Specific” for “Specific”

RET (A883F) = molecular target: T12, RET (A883F) (Homo sapiens, UniProt P07949, A883F); experiment: Biochemical kinase assay; conditions: 10 μM ATP
T12 construct: purchased Reaction Biology Corporation (contract assay)
T12 sequence (P07949 29-1114 A883F): as the sequence (P07949 29-1114) above, with A855F counted along it
Method: as §1, with “The biochemical kinase assay was performed at Reaction Biology Corporation (www.reactionbiology.com, Malvern, Pa.) following the procedures described in the reference (Anastassiadis T, et al Nat Biotechnol. 2011, 29, 1039). Specific” for “Specific”

RET (S891A) = molecular target: T13, RET (S891A) (Homo sapiens, UniProt P07949, S891A); experiment: Biochemical kinase assay; conditions: 10 μM ATP
T13 construct: purchased Reaction Biology Corporation (contract assay)
T13 sequence (P07949 29-1114 S891A): as the sequence (P07949 29-1114) above, with S863A counted along it
Method: as §1, with “The biochemical kinase assay was performed at Reaction Biology Corporation (www.reactionbiology.com, Malvern, Pa.) following the procedures described in the reference (Anastassiadis T, et al Nat Biotechnol. 2011, 29, 1039). Specific” for “Specific”

RET (S904A) = molecular target: T14, RET (S904A) (Homo sapiens, UniProt P07949, S904A); experiment: Biochemical kinase assay; conditions: 10 μM ATP
T14 construct: purchased Reaction Biology Corporation (contract assay)
T14 sequence (P07949 29-1114 S904A): as the sequence (P07949 29-1114) above, with S876A counted along it
Method: as §1, with “The biochemical kinase assay was performed at Reaction Biology Corporation (www.reactionbiology.com, Malvern, Pa.) following the procedures described in the reference (Anastassiadis T, et al Nat Biotechnol. 2011, 29, 1039). Specific” for “Specific”

RET (E762Q) = molecular target: T15, RET (E762Q) (Homo sapiens, UniProt P07949, E762Q); experiment: Biochemical kinase assay; conditions: 10 μM ATP
T15 construct: purchased Reaction Biology Corporation (contract assay)
T15 sequence (P07949 29-1114 E762Q): as the sequence (P07949 29-1114) above, with E734Q counted along it
Method: as §1, with “The biochemical kinase assay was performed at Reaction Biology Corporation (www.reactionbiology.com, Malvern, Pa.) following the procedures described in the reference (Anastassiadis T, et al Nat Biotechnol. 2011, 29, 1039). Specific” for “Specific”

RET (G691S) = molecular target: T16, RET (G691S) (Homo sapiens, UniProt P07949, G691S); experiment: Biochemical kinase assay; conditions: 10 μM ATP
T16 construct: purchased Reaction Biology Corporation (contract assay)
T16 sequence (P07949 29-1114 G691S): as the sequence (P07949 29-1114) above, with G663S counted along it
Method: as §1, with “The biochemical kinase assay was performed at Reaction Biology Corporation (www.reactionbiology.com, Malvern, Pa.) following the procedures described in the reference (Anastassiadis T, et al Nat Biotechnol. 2011, 29, 1039). Specific” for “Specific”

T1 sequence (P06241 whole entry): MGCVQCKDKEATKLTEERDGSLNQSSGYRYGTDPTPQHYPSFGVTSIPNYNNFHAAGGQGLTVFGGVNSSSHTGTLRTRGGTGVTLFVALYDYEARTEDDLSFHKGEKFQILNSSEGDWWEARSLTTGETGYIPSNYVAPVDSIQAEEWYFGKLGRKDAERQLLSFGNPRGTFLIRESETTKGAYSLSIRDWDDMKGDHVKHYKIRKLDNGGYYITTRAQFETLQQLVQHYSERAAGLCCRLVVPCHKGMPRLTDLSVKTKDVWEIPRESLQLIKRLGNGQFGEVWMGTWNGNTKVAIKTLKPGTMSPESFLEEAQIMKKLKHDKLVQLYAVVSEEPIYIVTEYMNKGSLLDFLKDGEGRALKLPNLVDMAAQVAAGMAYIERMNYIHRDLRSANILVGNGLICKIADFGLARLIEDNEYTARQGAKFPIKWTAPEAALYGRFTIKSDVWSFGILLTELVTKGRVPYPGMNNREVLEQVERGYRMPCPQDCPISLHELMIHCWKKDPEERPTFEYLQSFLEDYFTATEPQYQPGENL

Structure (SMILES): C[C@H]1CNC(=O)c2cnn3cc4c(nc23)N(Cc2cc(F)cnc2O1)[C@@H]1CCC[C@@H]1O4 [Compound I, (3aR,11S,20aS)-7-fluoro-11-methyl-2,3,3a,12,13,20a-hexahydro-1H,5H-17,19-(metheno)cyclopenta[5,6][1,4]oxazino[3,4-i]pyrazolo[4,3-f]pyrido[3,2-l][1,4,8,10]oxatriazacyclotridecin-14(11H)-one]
- IC50 (FYN): 1.9 nM
- IC50 (HCK): 2.7 nM
- IC50 (YES/YES1): 2.6 nM
- IC50 (LYN): 2 nM
- IC50 (SRC): 1.5 nM
- IC50 (RET): 1 nM
- IC50 (RET-NCOA4 (PTC3)): 0.7 nM
- IC50 (KG-1): 131 nM
- IC50 (TT cell (RET M918T)): < 0.5 nM
- IC50 (KM12 cell (TPM3-TRKA)): 3 nM
- IC50 (RET (V804L)): 6.2 nM
- IC50 (RET (V804M)): 8.1 nM
- IC50 (RET (R749T)): 0.8 nM
- IC50 (RET (V804E)): > 1000 nM
- IC50 (RET (A883F)): 1.2 nM
- IC50 (RET (S891A)): 0.2 nM
- IC50 (RET (S904A)): 0.9 nM
- IC50 (RET (E762Q)): 1 nM
- IC50 (RET (G691S)): 1.8 nM
